Source: patent publication US8920775B2, “Loading technique for preparing radionuclide containing nanoparticles” (Technical University of Denmark, priority 2009, dated 2014)

Legend:
[1] = ITC: ligand exchange of Cu(II) between 2HQ and chelates (Examples III, Table 2)
Description: Isothermal titration calorimetry (ITC) measurements were used to obtain the equilibrium constant (K, also referred to as the exchange constant) of the ligand exchange between the ionophore and the agent-entrapping compound, here a chelator. […] The ligand exchange was monitored by the heat of reaction from each injection in the ITC experiment as determined by peak integration. The ligand exchange constant (K) was determined by fitting the heat of reaction. The binding isotherm is defined by the equilibrium: Cu(2HQ)2+chelate ? Cu(chelate)+2(2HQ) (1)
The ITC measurements were carried out at 25° C. and 50° C. using isothermal titration calorimetry (iTC200, Micro-Cal, GE). The instrument was electrically calibrated by means of a standard electric pulse as recommended by the manufacturer. A 40 μL syringe was used for the titration, mixing was effected by stirring the syringe at 1000 rpm during equilibration and experiments. Typically, 20 injections of 2 μL each were performed with a 150 s interval between injections in a single titration. The reference cell of the calorimeter filled with water acts as a thermal reference to the sample cell. […] All solutions were degassed before titrations to reduce noise.
The ligand exchange constant (K) and the ligand exchange enthalpy (ΔH) are determined by as fitting parameters using a binding isotherm based on reaction scheme (1).

[2] = ITC: extraction of Cu(II) from 2-hydroxyquinoline by DOTA (Examples I); assay type: binding; details: Milli-Q water pH 7.4, 25° C.
Description: Isothermal titration calorimetry (ITC) measurements are designed to obtain primarily the enthalpy of each complex formation and their stoichiometries. The heats of each reaction are determined by integration of the peaks observed. After the contribution from the heat of dilution of each injection is subtracted, the heat is plotted against the molar ratio of the measured components. The binding constant (Ka, interchangeably referred to as the ligand exchange constant, K), enthalpy of binding) (ΔH^0), and stoichiometry (n) of the formation of complex are determined by fitting the binding isotherm against the binding equation using an independent binding model.
The exchange of 2-hydroxyquinoline with DOTA are shown as heat spike plots (A) and integrated heat plots (B). Experimental conditions: 0.5 mM Cu(2-hydroxyquinoine)2 is titrated with 10-μL injections of 5 mM DOTA. All solutions were prepared in Milli-Q water at pH=7.4.

[3] = ITC: ligand exchange of 2HQ with DOTA complexed to Cu(II) (Examples II); assay type: binding
[4] = In vivo PET/CT biodistribution and blood concentration-time profile; parameters: species or system NMRI nude mice; details: i.v., mice, PET ROI on left ventricle
Description: Human colon adenocarcinoma (HT29) tumor cells (2×10^6 cells) were inoculated in the left and right flank of female NMRI (Naval Medical Research Institute) nude mice and allowed to grow 4 weeks in the mice to establish the malignant solid tumor. ^64Cu-liposomes for in vivo studies were prepared as described above and consisted of DSPC/CHOL/DSPE-PEG-2000 in the molar ratio 55:40:5 and contained the chelating agent (DOTA) in a concentration of 10 mM, and at a pH of 4.0 in the interior of the liposomes. […]
After i.v. administration of ^64Cu-liposome or ^64Cu-DOTA the animals were subject to micro-PET/CT imaging at different time points: 1, 4, 12 and 24 h. With PET imaging the amount of radioactivity specifically sequestered in a region of interest (ROI) on an image can be calculated allowing direct quantitative determinations based on differences in signal intensity. After PET- and CT images were reconstructed the images were fused with Inveon Software (Siemens), and PET data were analyzed by defining ROIs on selected tissues. PET values are expressed as mean Becquerel ml^−1 (Bq ml^−1), and ROIs were drawn manually over each organ of interest. […]
FIG. 11 is a time-activity curve (TAC) illustrating the blood concentration-time pro-file of ^64Cu-liposome and ^64Cu-DOTA. […] The total injected activity dose was measured by drawing one ROI around the animal 4 min post-injection. […]

Compound | Ligand exchange constant (K), exchange of Cu(II) from 2HQ to chelate ([1]; pH 4.0 at 25° C.) | ligand exchange enthalpy (ΔH) ([1]; pH 4.0 at 25° C.) [kJ/mol] | Ligand exchange constant (K), exchange of Cu(II) from 2HQ to chelate ([1]; pH 5.9 at 25° C.) | ligand exchange enthalpy (ΔH) ([1]; pH 5.9 at 25° C.) | Ligand exchange constant (K), exchange of Cu(II) from 2HQ to chelate ([1]; pH 5.9 at 50° C.) | ligand exchange enthalpy (ΔH) ([1]; pH 5.9 at 50° C.) [kJ/mol] | binding affinity to Cu(II) compared with 2-hydroxyquinoline [2] | exchange constant, K (Cu(2HQ)2 + DOTA) ([3]; acetate buffer at pH 4.0, 25° C.) | exchange constant, K (Cu(2HQ)2 + DOTA) ([3]; pH 5.9 in MES buffer, 25° C.) | Ligand exchange constant (K), exchange of Cu(II) from 2HQ to chelate ([1]; pH 4.0 at 50° C.) | ligand exchange enthalpy (ΔH) ([1]; pH 4.0 at 50° C.) [kJ/mol] | blood clearance [4]
O=C(O)CN1CCCN(CC(=O)O)CCN(CC(=O)O)CCCN(CC(=O)O)CC1 [TETA, 1,4,8,11-tetraazacyclotetradecane-1,4,8,11-tetraacetic acid] | 1.2 × 10^−4 | 2.1 | 3.0 × 10^−3 | -20.5 kJ/mol | 2.8 × 10^−2 | -19.7 |  |  |  |  |  | 
C1CNCCNCCNCCN1 [Cyclen, 1,4,7,10-tetraazacyclododecane] |  |  | ^ | ^ | 1.4 × 10^−3 | -23 |  |  |  |  |  | 
O=C(O)CN1CCN(CC(=O)O)CCN(CC(=O)O)CCN(CC(=O)O)CC1 [DOTA, 1,4,7,10-tetraazacyclododecane-1,4,7,10-tetraacetic acid] | 1.3 × 10^−2 | 15.9 | 6.1 × 10^−4 | -33.5 kJ/mol | 1.0 × 10^−3 | -26.4 | much higher binding affinity to Cu(II) than 2-hydroxyquinoline | (1.0±0.3)·10^−2 | (5.2±1.6)·10^−4 | 8.7 × 10^−3 | 16.7 | 
O=C([O-])CN1CCN(CC(=O)[O-])CCN(CC(=O)O)CCN(CC(=O)O)CC1.[64Cu+2] [^64Cu-DOTA] |  |  |  |  |  |  |  |  |  |  |  | cleared rapidly after administration through renal filtration
O=P(O)(O)CN1CCN(CP(=O)(O)O)CCN(CP(=O)(O)O)CCN(CP(=O)(O)O)CC1 [DOTP, 1,4,7,10-tetraazacyclododecane-1,4,7,10-tetra(methanephosphonic acid)] | 2.5 × 10^−3 | 10 |  |  |  |  |  |  |  | 2.9 × 10^−3 | 14.2 | 
